Source: PMC10342533, “Novel Tetrazole Derivatives Targeting Tubulin Endowed with Antiproliferative Activity against Glioblastoma Cells” (International Journal of Molecular Sciences, 2023)
≈ marks a conversion by molar mass, not a printed value.

Assays:
[1] = system: U87 MG (glioblastoma); assay: Cell growth inhibition, MTT assay, U87 MG; format: cell-based; settings: Homo sapiens, U-87 MG
Description: (§1) The ability of the synthesized compounds to inhibit the cell proliferation of human cancer cell lines was assayed by measuring cell viability through the use of the MTT method 72 h after treatment. For this purpose, representative cell lines of the most frequent kinds of cancer were selected, including the following: HeLa (cervix epithelioid carcinoma), MCF7 (breast adenocarcinoma), U87 MG (glioblastoma), T98G (temozolomide resistant glioblastoma), HepG2 (hepatocellular carcinoma), HCT8 (colorectal carcinoma), and HT-29 (colon adenocarcinoma).
(§2) The cell lines were obtained from ATTC (Manassas, VA, USA). […] The cells were periodically tested for Mycoplasma infection by using a MycoAlert kit (Lonza, Norwest, Australia), and only Mycoplasma-free cells were used in the experiments.
(§3) Then, every compound was added (10 µL/well) to a final concentration of 10 µM. Untreated cells were used as negative controls. The antiproliferative activity of compounds was measured 72 h after drug exposure through the MTT assay. […] For this purpose, compounds were used at different concentrations, ranging from 10^−10 to 10^−2 M. Measurements were performed in triplicate, and each experiment was repeated three times. The IC50 values were determined using Origin software (version 9.6, OriginLab, Washington, DC, USA).

[2] = system: HT-29 (colon adenocarcinoma); assay: Cell growth inhibition, MTT assay, HT-29, without or with verapamil; format: cell-based, human
Description: as §1
Multidrug resistance (MDR) proteins, especially P-glycoprotein (P-gp), are often involved in resistance mechanisms affecting tubulin-binding drugs that are frequently related to the failure of cancer therapies. […] These pumps are also part of the blood–brain barrier.
as §2, §3

[3] = system: MCF7 (breast adenocarcinoma); assay: Cell growth inhibition, MTT assay, MCF7; format: cell-based; settings: Homo sapiens
Description: as §1, §2, §3

[4] = system: HeLa (cervix epithelioid carcinoma); assay: Cell growth inhibition, MTT assay, HeLa; format: cell-based; settings: Homo sapiens
Description: as §1, §2, §3

[5] = system: HepG2 (hepatocellular carcinoma); assay: Cell growth inhibition, MTT assay, HepG2; format: cell-based; settings: Homo sapiens
Description: as §1, §2, §3

[6] = system: HCT8 (colorectal carcinoma); assay: Cell growth inhibition, MTT assay, HCT8; format: cell-based; settings: Homo sapiens
Description: as §1, §2, §3

[7] = Aqueous solubility, shake-flask method, phosphate buffer pH 7.4; format: physicochemical; settings: thermodynamic from solid, phosphate buffer pH 7.4, shake-flask, mean ± SD of three experiments
Description: The aqueous solubility of tetrazole derivatives was determined by the shaking flask methodology in phosphate buffer at pH 7.4, microfiltration, and quantification of the saturated solutions via UV spectroscopy. […] The introduction of polar groups on the 3-indole position was favorable since the most soluble compounds were the oximes 16–19 (38–53 µg/mL), followed by the carbaldehyde series 12–15 (33–45 µg/mL), and the carbonitrile derivatives (25–40 µg/mL), whereas the unsubstituted indoles 8–11 were the least soluble series (19–35 µg/mL).
The aqueous solubility of the compounds was determined using the saturation shake-flask method. First, calibration lines at the maximum wavelength of absorbance were determined for each compound. Then, 5 mg of each compound was suspended in 500 µL of pH 7.4 buffer, and the resulting mixture was shaken for 72 h at room temperature and filtrated over a […] filter to remove the insoluble fraction. The concentration of the compound in the supernatant (saturated solution) was determined by measuring UV absorbance at the maximum wavelength of absorbance and interpolation in the calibration line. A Helios Alfa Spectrophotometer was used for the UV measurements. The aqueous solubility values are given as the average of three independent experiments.

[8] = system: T98G (temozolomide resistant glioblastoma); assay: Cell growth inhibition, MTT assay, T98G; format: cell-based; settings: Homo sapiens
Description: as §1, §2, §3

[9] = system: HEK-293 (embryonic kidney); assay: Cell growth inhibition, MTT assay, non-tumor HEK-293; format: cell-based; settings: Homo sapiens
Description: The ability of the synthesized compounds to inhibit the cell proliferation of human cancer cell lines was assayed by measuring cell viability through the use of the MTT method 72 h after treatment. For this purpose, representative cell lines of the most frequent kinds of cancer were selected, including the following: HeLa (cervix epithelioid carcinoma), MCF7 (breast adenocarcinoma), U87 MG (glioblastoma), T98G (temozolomide resistant glioblastoma), HepG2 (hepatocellular carcinoma), HCT8 (colorectal carcinoma), and HT-29 (colon adenocarcinoma). […] The compounds were also tested against the non-tumor HEK-293 cells to study their selectivity toward cancer cells. […] The cell lines were obtained from ATTC (Manassas, VA, USA). […] The cells were periodically tested for Mycoplasma infection by using a MycoAlert kit (Lonza, Norwest, Australia), and only Mycoplasma-free cells were used in the experiments. […] Louis, MO, USA), which was dissolved in PBS at 5 mg/mL in accordance with the manufacturer's instructions. […] Untreated cells were used as negative controls. The antiproliferative activity of compounds was measured 72 h after drug exposure through the MTT assay. […] For this purpose, compounds were used at different concentrations, ranging from 10^-10 to 10^-2 M. Measurements were performed in triplicate, and each experiment was repeated three times. The IC50 values were determined using Origin software (version 9.6, OriginLab, Washington, DC, USA).

[10] = target: T1, microtubular protein isolated from calf brains (bovine brain tubulin) (Bos taurus, UniProt P81947+Q6B856); assay: Tubulin polymerization inhibition (TPI); format: biochemical; settings: in vitro tubulin polymerization, mean ± SD
T1 construct: from tissue; host or cells: calf (bovine) brain
Description: We evaluated the capacity of the new synthesized compounds to inhibit the polymerization of microtubular protein isolated from calf brains. The assays were performed by taking absorbance measurements to quantify the amount of polymer mass formed in the presence (or absence; negative controls) of the compounds.
Bovine brain tubulin was isolated as previously described by following a modified version of the Shelanski method. The protein was stored at −80 °C, and its concentration was determined by employing the Bradford method before each use. […] Tubulin polymerization, caused when heating the samples, was accompanied by an increase in the absorbance (at 450 nm) of the sample that was monitored by using a Helios α spectrophotometer. […] Measurements were performed in triplicate in two independent experiments using microtubular proteins from different preparations.

[11] = Homo sapiens, HT-29, 72 h after drug exposure
[12] = Homo sapiens, HT-29, mean ± SD, Table S1
[13] = mean ± SD, Table S1, in the presence of verapamil (10 µM)
[14] = HCT-8, 72 h after drug exposure
[15] = HEK293, 72 h, non-tumorigenic cell line

T1 sequence (Q6B856 whole entry): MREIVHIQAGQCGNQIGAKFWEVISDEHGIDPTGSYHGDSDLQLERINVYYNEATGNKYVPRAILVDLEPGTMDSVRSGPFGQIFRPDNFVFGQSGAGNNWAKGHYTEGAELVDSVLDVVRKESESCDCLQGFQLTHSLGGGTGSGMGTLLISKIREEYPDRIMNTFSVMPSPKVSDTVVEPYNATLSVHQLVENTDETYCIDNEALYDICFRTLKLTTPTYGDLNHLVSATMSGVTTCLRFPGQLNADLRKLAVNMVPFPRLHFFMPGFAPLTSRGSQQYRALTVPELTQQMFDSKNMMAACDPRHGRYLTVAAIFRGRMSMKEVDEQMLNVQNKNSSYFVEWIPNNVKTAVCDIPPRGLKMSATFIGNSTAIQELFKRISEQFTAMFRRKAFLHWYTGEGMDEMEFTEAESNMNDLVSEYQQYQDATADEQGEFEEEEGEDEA
T1 sequence (P81947 whole entry): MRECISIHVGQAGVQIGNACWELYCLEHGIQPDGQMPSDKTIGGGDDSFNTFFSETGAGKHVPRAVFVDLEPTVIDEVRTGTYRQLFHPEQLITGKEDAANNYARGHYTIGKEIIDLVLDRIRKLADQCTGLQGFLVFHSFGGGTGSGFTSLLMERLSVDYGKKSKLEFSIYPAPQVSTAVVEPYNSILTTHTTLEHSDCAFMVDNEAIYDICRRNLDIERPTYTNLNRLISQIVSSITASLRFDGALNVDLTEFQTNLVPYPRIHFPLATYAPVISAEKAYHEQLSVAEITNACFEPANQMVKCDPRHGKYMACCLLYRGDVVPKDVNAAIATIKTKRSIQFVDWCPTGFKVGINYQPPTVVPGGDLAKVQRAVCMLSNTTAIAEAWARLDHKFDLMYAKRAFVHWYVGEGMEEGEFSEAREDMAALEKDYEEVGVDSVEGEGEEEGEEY

IC50 ([1]; mean ± SD, Table S1) [nM] | IC50 [2, 11] [nM] | IC50 [2, 12] [nM] | IC50 [2, 13] [nM] | IC50 ([3]; 72 h after drug exposure) [nM] | IC50 ([3]; mean ± SD, Table S1) [nM] | IC50 ([4]; 72 h after drug exposure) [nM] | IC50 ([4]; mean ± SD, Table S1) [nM] | IC50 ([5]; mean ± SD, Table S1) [nM] | IC50 [6, 14] [nM] | IC50 ([6]; HCT-8, mean ± SD, Table S1) [nM] | solubility at 72 h [7] [µg/mL] | IC50 ([1]; 72 h after drug exposure) [nM] | IC50 ([8]; 72 h, 72 h after drug exposure) [nM] | IC50 ([8]; mean ± SD, Table S1) [nM] | IC50 ([5]; 72 h after drug exposure) [nM] | IC50 [10] [nM] | SMILES | IC50 [9, 15] [nM] | also measured
32.4 ± 0.2 | – | 52.3 ± 0.4 | 52.4 ± 0.2 | 43 | 43.2 ± 0.4 | 45 | 45.1 ± 0.3 | 49.1 ± 0.5 | 49 | 49.4 ± 0.3 | 19.3 ± 0.1 (≈ 55.9 µM) | 32 | 41 | – | 49 | 2800 ± 100 | Cn1ccc2cc(-n3nnnc3-c3cc(Cl)nc(Cl)c3)ccc21 [Compound 8, 5-(5-(2,6-dichloropyridin-4-yl)-1H-tetrazol-1-yl)-1-methyl-1H-indole] | 4720 | –
48.1 ± 0.4 | 81 | 81.1 ± 0.5 | 80.2 ± 0.6 | 69 | 69.3 ± 0.5 | 72 | 72.5 ± 0.4 | 70.5 ± 0.5 | 75 | 75.4 ± 0.6 | 35.4 ± 0.2 (≈ 104 µM) | 48 | 54 | 54.4 ± 0.5 | 70 | 3100 ± 200 | COc1cc(-c2nnnn2-c2ccc3c(ccn3C)c2)cc(Cl)n1 [Compound 9, 5-(5-(2-chloro-6-methoxypyridin-4-yl)-1H-tetrazol-1-yl)-1-methyl-1H-indole] | 5200 | –
131.3 ± 1.1 | 211 | 211.1 ± 2 | – | 210 | 210.1 ± 1.9 | 207 | 207.1 ± 2 | 220 ± 2.3 | 219 | 219.1 ± 1.5 | 38.2 ± 0.4 (≈ 98.4 µM) | 131 | 127 | 127.3 ± 0.9 | 220 | 3700 ± 200 | Cn1cc(C=NO)c2cc(-n3nnnc3-c3cc(Cl)nc(Cl)c3)ccc21 [Compound 16, 5-(5-(2,6-dichloropyridin-4-yl)-1H-tetrazol-1-yl)-1-methyl-1H-indole-3-carbaldehyde oxime] | 7010 | –
155.2 ± 1.3 | 238 | – | 230 ± 2.5 | 215 | – | 220 | 220.2 ± 1.9 | – | 227 | – | 53 ± 0.3 (≈ 138 µM) | 155 | 181 | 181.4 ± 1.5 | 229 | 3800 ± 100 | COc1cc(-c2nnnn2-c2ccc3c(c2)c(C=NO)cn3C)cc(Cl)n1 [Compound 17, 5-(5-(2-chloro-6-methoxypyridin-4-yl)-1H-tetrazol-1-yl)-1-methyl-1H-indole-3-carbaldehyde oxime] | 7250 | –
93.4 ± 1 | 152 | 152.3 ± 1.4 | 150 ± 1.6 | 123 | 123 ± 1.7 | 131 | – | – | 115 | 115 ± 1.3 | 42.7 ± 0.5 (≈ 107 µM) | 93 | 102 | 102 ± 1.1 | 127 | 3300 ± 100 | CSc1cc(-c2nnnn2-c2ccc3c(c2)c(C=NO)cn3C)cc(Cl)n1 [Compound 18, 5-(5-(2-chloro-6-(methylsulfanyl)pyridin-4-yl)-1H-tetrazol-1-yl)-1-methyl-1H-indole-3-carbaldehyde oxime] | 6130 | –
275 ± 2.8 | 355 | 355.5 ± 2.3 | 359 ± 4.1 | 339 | 339.5 ± 2.4 | 307 | 307.1 ± 2.8 | 341.4 ± 3.3 | 333 | 333.2 ± 2.7 | 47.8 ± 0.6 (≈ 116 µM) | 275 | 294 | 294 ± 3 | 341 | 4300 ± 200 | CSc1cc(-c2nnnn2-c2ccc3c(c2)c(C=NO)cn3C)cc(SC)n1 [Compound 19, 5-(5-(2,6-bis(methylsulfanyl)pyridin-4-yl)-1H-tetrazol-1-yl)-1-methyl-1H-indole-3-carbaldehyde oxime] | 8310 | –
– | – | > 10 | – | > 10000 | – | > 10000 | – | – | > 10000 | – | – | – | – | – | > 10000 | – | Cn1nnc2c(C(N)=O)ncn2c1=O [TMZ, temozolomide, reference compound] | > 10000 | IC50 ([1]; 72 h, 72 h after drug exposure): > 100000 nM; IC50 ([3]; heading: IC50 MCF7, mean ± SD, Table S1): > 10000 nM; IC50 ([4]; heading: IC50 HeLa, mean ± SD, Table S1): > 10000 nM; IC50 ([5]; heading: IC50 HepG2, mean ± SD, Table S1): > 10000 nM; IC50 ([6]; HCT-8, heading: IC50 HCT8, mean ± SD, Table S1): > 10000 nM; IC50 ([9]; HEK293, heading: IC50 HEK-293, mean ± SD, Table S1, non-tumorigenic cell line): > 10000 nM

SMILES | IC50 ([1]; mean ± SD, Table S1) [nM] | IC50 [2, 11] [nM] | IC50 [2, 12] [nM] | IC50 [2, 13] [nM] | IC50 ([3]; 72 h after drug exposure) [nM] | IC50 ([3]; mean ± SD, Table S1) [nM] | IC50 ([4]; 72 h after drug exposure) [nM] | IC50 ([4]; mean ± SD, Table S1) [nM] | IC50 ([5]; mean ± SD, Table S1) [nM] | IC50 [6, 14] [nM] | IC50 ([6]; HCT-8, mean ± SD, Table S1) [nM] | solubility at 72 h [7] [µg/mL] | IC50 ([1]; 72 h after drug exposure) [nM] | IC50 ([8]; 72 h, 72 h after drug exposure) [nM] | IC50 ([8]; mean ± SD, Table S1) [nM] | IC50 ([5]; 72 h after drug exposure) [nM] | IC50 [10] [nM] | IC50 [9, 15] [nM] | also measured
COc1ccc(S(=O)(=O)Nc2cccnc2Nc2ccc(O)cc2)cc1 [ABT-751, reference compound] | 375 ± 5.4 | 213 | 213.5 ± 2.1 | 250 ± 2.9 | 180 | 180 ± 2.8 | 388 | 388 ± 3.9 | 327.1 ± 1.1 | 209 | 209.1 ± 2 | 40 ± 0.3 (≈ 108 µM) | – | – | – | – | – | – | –
COc1ccc(/C=C\c2cc(OC)c(OC)c(OC)c2)cc1O [CA-4, combretastatin A4, reference compound] | 10.1 ± 0.1 | 305 | 305.4 ± 2.5 | 327.5 ± 2.2 | 1 | 1.4 ± 0.1 | 2 | – | 13.4 ± 0.2 | 220 | 220.4 ± 2 | 1.1 ± 0.1 (≈ 3.48 µM) | 10 | 17 | 17.1 ± 0.2 | 13 | – | 721 | –
